Laboratory results from article PMC6348381, “Discovery of an MLLT1/3 YEATS Domain Chemical Probe” (Angewandte Chemie (International Ed. in English), 2018).
Substitutions are numbered along the chain they refer to.

What was measured:
Type in all cases: binding
CREBBP = target: T1, CREBBP (Homo sapiens, UniProt Q92793); assay: Thermal shift assay, CREBBP
T1 construct: purchased in-house (SGC bromodomain thermal shift / AlphaScreen panel)

BRD3(1) = target: T2, BRD3(1) (Homo sapiens, UniProt Q15059); assay: Thermal shift assay, BRD3(1)
T2 construct: BRD3(1); purchased in-house (SGC bromodomain thermal shift / AlphaScreen panel)
Experimental: (§1) II.VII Thermal Shift Assay[6]
(§2) Thermal melting experiments were carried out using an Mx3005p Real Time PCR machine (Stratagene). Proteins were buffered in 10 mM HEPES pH 7.5, 500 mM NaCl and assayed in a 96-well plate at a final concentration of 2 μM in 20 μL volume. Compounds were added at a final concentration of 50 μM. SYPRO Orange (Molecular Probes) was added as a fluorescence probe at a dilution of 1:1000. Excitation and emission filters for the SYPRO-Orange dye were set to 465 nm and 590 nm, respectively. The temperature was raised with a step of 3 °C per minute from 25 °C to 96 °C and fluorescence readings were taken at each interval. The unfolding curves were fitted using the Boltzmann equation to determine the middle point of the transition.

BRD2(2) = target: T3, BRD2(2) (Homo sapiens, UniProt P25440); assay: Thermal shift assay, BRD2(2)
T3 construct: BRD2(2); purchased in-house (SGC bromodomain thermal shift / AlphaScreen panel)

PB1(3) = target: T4, PB1(3) (Homo sapiens, UniProt Q86U86); assay: Thermal shift assay, PB1(3)
T4 construct: PB1(3); purchased in-house (SGC bromodomain thermal shift / AlphaScreen panel)
Experimental: as §1, §2

PB1(2) = target: T5, PB1(2) (Homo sapiens, UniProt Q86U86); assay: Thermal shift assay, PB1(2)
T5 construct: PB1(2); purchased in-house (SGC bromodomain thermal shift / AlphaScreen panel)

BRD2(1) = target: T6, BRD2(1) (Homo sapiens, UniProt P25440); assay: Thermal shift assay, BRD2(1)
T6 construct: BRD2(1); purchased in-house (SGC bromodomain thermal shift / AlphaScreen panel)

BRPF1B = target: T7, BRPF1B (Homo sapiens, UniProt P55201); assay: Thermal shift assay, BRPF1B
T7 construct: purchased in-house (SGC bromodomain thermal shift / AlphaScreen panel)
T7 sequence (P55201 1-1214): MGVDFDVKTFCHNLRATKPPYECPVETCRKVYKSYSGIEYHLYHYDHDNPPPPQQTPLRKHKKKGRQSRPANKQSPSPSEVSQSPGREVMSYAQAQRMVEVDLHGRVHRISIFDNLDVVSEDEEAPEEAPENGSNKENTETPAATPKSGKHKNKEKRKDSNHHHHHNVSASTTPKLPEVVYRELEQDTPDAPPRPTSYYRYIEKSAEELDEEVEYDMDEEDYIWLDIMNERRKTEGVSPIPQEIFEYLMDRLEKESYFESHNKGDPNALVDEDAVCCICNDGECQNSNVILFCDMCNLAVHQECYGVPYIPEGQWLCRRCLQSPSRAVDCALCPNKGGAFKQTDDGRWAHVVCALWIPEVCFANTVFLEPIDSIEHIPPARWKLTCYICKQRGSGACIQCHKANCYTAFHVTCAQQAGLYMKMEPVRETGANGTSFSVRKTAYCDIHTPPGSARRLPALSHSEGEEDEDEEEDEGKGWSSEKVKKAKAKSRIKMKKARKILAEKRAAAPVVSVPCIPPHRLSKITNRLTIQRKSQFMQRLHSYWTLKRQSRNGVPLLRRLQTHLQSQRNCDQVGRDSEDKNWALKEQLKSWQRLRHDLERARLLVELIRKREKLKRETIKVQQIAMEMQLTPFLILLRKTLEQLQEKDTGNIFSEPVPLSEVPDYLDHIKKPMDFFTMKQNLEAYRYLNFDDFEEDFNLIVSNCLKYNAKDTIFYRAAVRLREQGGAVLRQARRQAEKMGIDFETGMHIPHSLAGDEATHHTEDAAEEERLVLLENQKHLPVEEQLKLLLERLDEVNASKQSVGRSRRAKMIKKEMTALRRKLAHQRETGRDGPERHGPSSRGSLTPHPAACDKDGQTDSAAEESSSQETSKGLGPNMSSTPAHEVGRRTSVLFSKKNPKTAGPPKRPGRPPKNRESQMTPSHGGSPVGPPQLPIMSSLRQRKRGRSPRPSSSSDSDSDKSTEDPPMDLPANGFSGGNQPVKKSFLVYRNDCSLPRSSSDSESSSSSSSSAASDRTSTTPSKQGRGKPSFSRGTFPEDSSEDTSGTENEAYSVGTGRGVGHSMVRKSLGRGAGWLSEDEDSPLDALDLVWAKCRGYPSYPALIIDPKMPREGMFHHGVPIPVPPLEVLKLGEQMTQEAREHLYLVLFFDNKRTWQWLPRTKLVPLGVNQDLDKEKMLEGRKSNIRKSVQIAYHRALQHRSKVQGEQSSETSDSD

TAF1L(2) = target: T8, TAF1L(2) (Homo sapiens, UniProt Q8IZX4); assay: Thermal shift assay, TAF1L(2)
T8 construct: Bromosporine with recombinant human bromodomain proteins; made in house
T8 sequence (Q8IZX4 1517-1626 limits assumed): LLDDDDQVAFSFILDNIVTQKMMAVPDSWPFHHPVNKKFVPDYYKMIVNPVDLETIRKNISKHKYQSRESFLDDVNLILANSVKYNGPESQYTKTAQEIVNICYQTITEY
Experimental: as §1, §2

LOC93349 = target: T9, LOC93349 (Homo sapiens, UniProt Q9H930); assay: Thermal shift assay, LOC93349
T9 construct: purchased in-house (SGC bromodomain thermal shift / AlphaScreen panel)
Experimental: as §1, §2

SMARCA4 = target: T10, SMARCA4 (Homo sapiens, UniProt P51532); assay: Thermal shift assay, SMARCA4
T10 construct: purchased in-house (SGC bromodomain thermal shift / AlphaScreen panel)

TAF1(2) = target: T11, TAF1(2) (Homo sapiens, UniProt P21675); assay: Thermal shift assay, TAF1(2)
T11 construct: Bromosporine with recombinant human bromodomain proteins; made in house
T11 sequence (P21675 1519-1628 limits assumed): T8 sequence (Q8IZX4 1517-1626 limits assumed) with M46V, V51M, I102V, I107L
Experimental: as §1, §2

WDR9(2) = target: T12, WDR9(2) (Homo sapiens, UniProt Q9NSI6); assay: Thermal shift assay, WDR9(2)
T12 construct: Bromosporine with recombinant human bromodomain proteins; made in house
Experimental: as §1, §2

BRD3(2) = target: T13, BRD3(2) (Homo sapiens, UniProt Q15059); assay: Thermal shift assay, BRD3(2)
T13 construct: BRD3(2); purchased in-house (SGC bromodomain thermal shift / AlphaScreen panel)
Experimental: as §1, §2

SMARCA2A = target: T14, SMARCA2A (Homo sapiens, UniProt P51531); assay: Thermal shift assay, SMARCA2A
T14 construct: purchased in-house (SGC bromodomain thermal shift / AlphaScreen panel)

CECR2 = CECR2 (Homo sapiens, UniProt Q9BXF3); assay: Thermal shift assay, CECR2; set-up: purchased in-house (SGC bromodomain thermal shift / AlphaScreen panel)
Chain of CECR2 (Q9BXF3 whole entry): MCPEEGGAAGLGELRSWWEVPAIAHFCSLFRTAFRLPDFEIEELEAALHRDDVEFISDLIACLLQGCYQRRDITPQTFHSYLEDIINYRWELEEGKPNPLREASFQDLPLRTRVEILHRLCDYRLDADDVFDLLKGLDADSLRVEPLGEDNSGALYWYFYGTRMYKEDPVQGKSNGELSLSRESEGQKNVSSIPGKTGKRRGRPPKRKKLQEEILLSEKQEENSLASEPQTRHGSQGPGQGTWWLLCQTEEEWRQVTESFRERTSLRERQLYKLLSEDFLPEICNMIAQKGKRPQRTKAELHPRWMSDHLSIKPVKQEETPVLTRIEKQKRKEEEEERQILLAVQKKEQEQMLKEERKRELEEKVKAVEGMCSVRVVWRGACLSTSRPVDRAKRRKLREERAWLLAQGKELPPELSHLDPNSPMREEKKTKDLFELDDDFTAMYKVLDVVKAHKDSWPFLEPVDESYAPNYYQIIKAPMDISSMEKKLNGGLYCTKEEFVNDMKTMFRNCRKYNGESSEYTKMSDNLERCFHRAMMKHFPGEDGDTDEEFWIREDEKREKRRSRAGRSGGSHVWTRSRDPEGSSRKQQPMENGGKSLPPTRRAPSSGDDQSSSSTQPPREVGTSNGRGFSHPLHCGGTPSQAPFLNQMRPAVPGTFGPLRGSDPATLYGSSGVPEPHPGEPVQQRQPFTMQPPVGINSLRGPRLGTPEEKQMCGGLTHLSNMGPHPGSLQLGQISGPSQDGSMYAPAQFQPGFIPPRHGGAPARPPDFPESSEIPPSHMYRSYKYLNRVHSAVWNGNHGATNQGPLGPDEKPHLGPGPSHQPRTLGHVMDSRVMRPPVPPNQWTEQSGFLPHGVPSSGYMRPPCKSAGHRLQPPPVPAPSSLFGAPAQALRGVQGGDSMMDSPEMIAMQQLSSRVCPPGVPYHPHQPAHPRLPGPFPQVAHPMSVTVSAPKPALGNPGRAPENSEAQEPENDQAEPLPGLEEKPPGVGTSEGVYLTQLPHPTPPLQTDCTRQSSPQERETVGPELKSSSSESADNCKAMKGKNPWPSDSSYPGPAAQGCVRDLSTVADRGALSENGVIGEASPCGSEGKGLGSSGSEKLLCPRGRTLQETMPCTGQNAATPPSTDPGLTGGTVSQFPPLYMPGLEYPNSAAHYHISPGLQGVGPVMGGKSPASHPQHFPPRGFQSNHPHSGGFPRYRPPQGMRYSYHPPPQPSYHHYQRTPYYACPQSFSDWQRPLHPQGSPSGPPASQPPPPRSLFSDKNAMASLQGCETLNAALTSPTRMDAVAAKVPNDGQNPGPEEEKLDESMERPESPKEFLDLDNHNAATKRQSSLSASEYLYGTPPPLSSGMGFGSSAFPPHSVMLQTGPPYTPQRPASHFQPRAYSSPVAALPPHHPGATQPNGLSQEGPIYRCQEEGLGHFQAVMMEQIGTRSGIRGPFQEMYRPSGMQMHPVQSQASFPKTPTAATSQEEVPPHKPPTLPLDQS

T1 sequence (Q92793 whole entry): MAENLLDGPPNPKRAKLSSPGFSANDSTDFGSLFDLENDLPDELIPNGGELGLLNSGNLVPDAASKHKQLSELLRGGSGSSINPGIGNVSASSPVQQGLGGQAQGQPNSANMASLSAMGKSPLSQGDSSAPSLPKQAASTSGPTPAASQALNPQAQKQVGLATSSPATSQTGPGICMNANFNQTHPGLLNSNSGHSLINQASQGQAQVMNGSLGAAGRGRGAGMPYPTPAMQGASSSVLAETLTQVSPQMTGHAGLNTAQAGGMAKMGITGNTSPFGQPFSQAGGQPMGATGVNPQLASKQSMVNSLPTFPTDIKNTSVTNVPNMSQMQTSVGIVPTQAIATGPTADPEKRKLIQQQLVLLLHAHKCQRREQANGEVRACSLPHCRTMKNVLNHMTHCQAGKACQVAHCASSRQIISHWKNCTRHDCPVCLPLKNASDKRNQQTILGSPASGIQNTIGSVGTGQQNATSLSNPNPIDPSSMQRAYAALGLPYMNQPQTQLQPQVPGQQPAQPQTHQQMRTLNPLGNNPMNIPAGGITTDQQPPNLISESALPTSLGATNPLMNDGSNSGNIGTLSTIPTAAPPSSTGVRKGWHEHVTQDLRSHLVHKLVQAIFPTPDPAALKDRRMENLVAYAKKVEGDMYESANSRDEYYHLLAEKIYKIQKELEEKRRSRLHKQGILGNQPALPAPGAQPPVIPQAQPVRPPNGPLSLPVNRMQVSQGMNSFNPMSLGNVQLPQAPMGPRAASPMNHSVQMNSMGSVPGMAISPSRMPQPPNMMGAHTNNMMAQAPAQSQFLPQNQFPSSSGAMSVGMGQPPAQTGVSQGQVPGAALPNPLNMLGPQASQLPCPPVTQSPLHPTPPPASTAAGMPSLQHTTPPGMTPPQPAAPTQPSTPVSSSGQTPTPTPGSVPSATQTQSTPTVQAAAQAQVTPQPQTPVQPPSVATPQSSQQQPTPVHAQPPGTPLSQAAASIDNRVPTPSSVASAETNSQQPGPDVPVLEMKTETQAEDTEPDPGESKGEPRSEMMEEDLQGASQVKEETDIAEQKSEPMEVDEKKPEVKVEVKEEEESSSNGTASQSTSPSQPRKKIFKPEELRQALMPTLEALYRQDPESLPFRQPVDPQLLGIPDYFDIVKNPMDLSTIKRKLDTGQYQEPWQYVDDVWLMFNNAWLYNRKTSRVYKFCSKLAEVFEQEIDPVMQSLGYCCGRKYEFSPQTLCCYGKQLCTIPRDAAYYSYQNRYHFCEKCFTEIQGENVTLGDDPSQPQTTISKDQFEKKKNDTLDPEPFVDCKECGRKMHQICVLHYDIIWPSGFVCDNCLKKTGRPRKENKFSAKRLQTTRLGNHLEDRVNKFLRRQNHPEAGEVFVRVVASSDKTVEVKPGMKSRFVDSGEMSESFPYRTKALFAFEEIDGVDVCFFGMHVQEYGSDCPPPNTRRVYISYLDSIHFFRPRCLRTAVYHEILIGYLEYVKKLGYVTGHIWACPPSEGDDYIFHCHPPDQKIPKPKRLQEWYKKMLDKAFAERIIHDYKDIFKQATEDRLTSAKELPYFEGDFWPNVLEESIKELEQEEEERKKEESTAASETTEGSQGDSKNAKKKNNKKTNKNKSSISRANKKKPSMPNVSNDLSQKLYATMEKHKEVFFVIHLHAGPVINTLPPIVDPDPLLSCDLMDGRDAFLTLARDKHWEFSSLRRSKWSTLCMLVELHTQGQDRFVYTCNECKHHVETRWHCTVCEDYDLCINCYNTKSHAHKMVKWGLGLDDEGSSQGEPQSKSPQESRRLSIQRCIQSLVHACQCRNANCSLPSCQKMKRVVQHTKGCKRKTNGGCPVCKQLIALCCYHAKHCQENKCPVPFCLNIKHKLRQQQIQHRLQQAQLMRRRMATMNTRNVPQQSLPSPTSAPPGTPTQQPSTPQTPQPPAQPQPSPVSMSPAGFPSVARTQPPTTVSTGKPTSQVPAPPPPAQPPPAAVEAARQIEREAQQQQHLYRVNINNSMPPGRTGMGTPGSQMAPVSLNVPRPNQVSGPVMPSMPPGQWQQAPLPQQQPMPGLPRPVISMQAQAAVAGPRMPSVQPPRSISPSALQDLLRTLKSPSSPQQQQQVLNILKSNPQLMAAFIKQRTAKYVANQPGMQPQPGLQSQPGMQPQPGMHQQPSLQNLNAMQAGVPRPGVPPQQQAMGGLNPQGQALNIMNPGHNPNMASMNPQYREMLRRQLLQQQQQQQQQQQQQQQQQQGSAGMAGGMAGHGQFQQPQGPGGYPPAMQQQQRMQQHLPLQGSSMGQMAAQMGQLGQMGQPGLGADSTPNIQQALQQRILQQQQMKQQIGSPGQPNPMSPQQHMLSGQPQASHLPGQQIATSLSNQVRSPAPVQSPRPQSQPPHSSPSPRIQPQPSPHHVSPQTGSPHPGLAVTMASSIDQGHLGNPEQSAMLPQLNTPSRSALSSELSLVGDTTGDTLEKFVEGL
T6 sequence (P25440 71-194 limits assumed): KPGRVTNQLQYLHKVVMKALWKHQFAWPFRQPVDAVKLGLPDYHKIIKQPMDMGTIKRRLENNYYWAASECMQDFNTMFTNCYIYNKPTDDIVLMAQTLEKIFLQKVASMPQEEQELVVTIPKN
T5 sequence (Q86U86 178-291 limits assumed): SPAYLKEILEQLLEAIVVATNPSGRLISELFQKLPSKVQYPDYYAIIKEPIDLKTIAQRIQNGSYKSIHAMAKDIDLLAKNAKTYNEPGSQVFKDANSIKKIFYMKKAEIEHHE
T2 sequence (Q15059 24-144 limits assumed): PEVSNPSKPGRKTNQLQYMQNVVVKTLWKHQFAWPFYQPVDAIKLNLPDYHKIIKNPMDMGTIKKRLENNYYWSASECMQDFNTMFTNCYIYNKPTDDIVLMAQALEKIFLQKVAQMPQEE
T9 sequence (Q9H930 whole entry): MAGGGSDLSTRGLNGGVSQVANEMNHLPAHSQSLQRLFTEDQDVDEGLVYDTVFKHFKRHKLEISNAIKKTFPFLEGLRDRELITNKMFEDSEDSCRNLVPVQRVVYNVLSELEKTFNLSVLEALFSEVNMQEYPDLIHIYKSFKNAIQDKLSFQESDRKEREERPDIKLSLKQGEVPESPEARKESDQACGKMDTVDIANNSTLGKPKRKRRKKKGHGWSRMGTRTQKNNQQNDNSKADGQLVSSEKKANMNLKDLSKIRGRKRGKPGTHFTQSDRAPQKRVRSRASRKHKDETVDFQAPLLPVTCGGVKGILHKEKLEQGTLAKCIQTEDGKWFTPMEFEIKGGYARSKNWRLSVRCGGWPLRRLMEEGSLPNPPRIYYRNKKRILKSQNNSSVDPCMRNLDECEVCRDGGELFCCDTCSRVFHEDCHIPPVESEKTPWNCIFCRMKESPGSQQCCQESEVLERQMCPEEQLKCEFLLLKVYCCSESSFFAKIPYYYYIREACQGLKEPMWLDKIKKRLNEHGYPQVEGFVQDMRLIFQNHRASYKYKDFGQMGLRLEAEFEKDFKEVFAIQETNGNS
T4 sequence (Q86U86 388-494 limits assumed): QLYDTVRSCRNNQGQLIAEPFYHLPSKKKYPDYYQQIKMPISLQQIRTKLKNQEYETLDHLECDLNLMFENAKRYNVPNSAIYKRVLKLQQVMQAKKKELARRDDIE

Compound | Thermal stabilisation, CREBBP (CREBBP; 50 μM compound) | Thermal stabilisation, BRD3(1) (BRD3(1); 50 μM compound) | Thermal stabilisation, BRD2(2) (BRD2(2); 50 μM compound) | Thermal stabilisation, PB1(3) (PB1(3); 50 μM compound) | Thermal stabilisation, PB1(2) (PB1(2); 50 μM compound) | Thermal stabilisation, BRD2(1) (BRD2(1); 50 μM compound) | Thermal stabilisation, BRPF1B (BRPF1B; 50 μM compound) | Thermal stabilisation, TAF1L(2) (TAF1L(2); 50 μM compound) | Thermal stabilisation, LOC93349 (LOC93349; 50 μM compound) | Thermal stabilisation, SMARCA4 (SMARCA4; 50 μM compound) | Thermal stabilisation, TAF1(2) (TAF1(2); 50 μM compound) | Thermal stabilisation, WDR9(2) (WDR9(2); 50 μM compound) | Thermal stabilisation, BRD3(2) (BRD3(2); 50 μM compound) | Thermal stabilisation, SMARCA2A (SMARCA2A; 50 μM compound) | Thermal stabilisation, CECR2 (CECR2; 50 μM compound) | also measured
CCOC(=O)Nc1cc(-c2ccc(C)c(NS(C)(=O)=O)c2)nn2c(C)nnc12 [Bromosporine, reference compound] |  |  |  |  |  |  |  |  |  |  |  |  |  |  |  | Thermal stabilisation, CREBBP (CREBBP; 10 µM compound concentration): 3.31; Thermal stabilisation, BRD3(1) (BRD3(1); 10 µM compound concentration): 5.275; Thermal stabilisation, BRD2(2) (BRD2(2); 10 µM compound concentration): 5.8; Thermal stabilisation, PB1(3) (PB1(3); 10 µM compound concentration): 0.24; Thermal stabilisation, PB1(2) (PB1(2); 10 µM compound concentration): 0.105; Thermal stabilisation, BRD2(1) (BRD2(1); 10 µM compound concentration): 4.46; Thermal stabilisation, BRPF1B (BRPF1B; 10 µM compound concentration): 4.23; Thermal stabilisation, TAF1L(2) (TAF1L(2); 10 µM compound concentration): 4.83; Thermal stabilisation, LOC93349 (LOC93349; 10 µM compound concentration): 2.385; Thermal stabilisation, SMARCA4 (SMARCA4; 10 µM compound concentration): 0.12; Thermal stabilisation, TAF1(2) (TAF1(2); 10 µM compound concentration): 5.03; Thermal stabilisation, WDR9(2) (WDR9(2); 10 µM compound concentration): -1.225; Thermal stabilisation, BRD3(2) (BRD3(2); 10 µM compound concentration): 6.56; Thermal stabilisation, SMARCA2A (SMARCA2A; 10 µM compound concentration): 0.35; Thermal stabilisation, CECR2 (CECR2; 10 µM compound concentration): 11.42
COC(=O)c1ccc(C(=O)Nc2ccc3[nH]c(CN4CCCCC4)nc3c2)cc1 [Compound 1] | 0.675 | 1.82 | 0.55 | 1.5 | 0.105 | 1.345 | 0.275 | -0.065 | 0.035 | 0.135 | -0.22 | -0.18 | 0.675 | 1.445 | 1.28 | 
C[C@H]1CCCN1Cc1nc2cc(NC(=O)c3ccc4c(cnn4C)c3)ccc2[nH]1 [Compound 92] | -0.075 | -0.42 | 0.19 | 1.09 | -0.17 | -0.28 | -0.435 | -0.48 | -1.05 | 0.035 | -0.21 | -0.775 | -0.1 | 0.97 | 1.205 | 
